In ChEMBL document CHEMBL6109137, “Design, Synthesis, Evaluation, and SAR of 5-Phenylisoindoline Derivatives, a Potent Class of Small-Molecule Inhibitors Targeting the Programmed Cell Death-1/Programmed Cell Death-Ligand 1 (PD-1/PD-L1) Interaction” (J Med Chem, 2025):
The source made the active and inactive calls. No cut-off for these calls is given here.

Legend:
[1] = Binding affinity to human PD-L1 assessed as dissociation constant by SPR analysis
[2] = test system: PBMC; assay: Inhibition of apoptosis in human PBMC cells assessed as reduction in PD-L1-induced proportion of terminal phase apoptotic cells by flow cytometry; type: functional, cell-based
[3] = Tmax in Sprague-Dawley rat at 10 mg/kg, ip measured for 24 hrs by LC-MS/MS analysis; type: ADME, organism-based; conditions: in vivo
[4] = AUC (0 to infinity) in Sprague-Dawley rat at 20 mg/kg, po measured for 24 hrs by LC-MS/MS analysis; type: ADME, organism-based; conditions: in vivo
[5] = Oral bioavailability in Sprague-Dawley rat at 20 mg/kg measured for 24 hrs by LC-MS/MS analysis; type: ADME, organism-based; conditions: in vivo
[6] = Toxicity in C57BL/6J mouse implanted with mouse MC38 cells assessed as injury in heart at 5 to 20 mg/kg, ip qd for 13 days by H and E staining based analysis; type: organism-based; conditions: in vivo, 312 h, dose 5-20 mg/kg, time 13 day
[7] = Toxicity in C57BL/6J mouse implanted with mouse MC38 cells assessed as injury in spleen at 5 to 20 mg/kg, ip qd for 13 days by H and E staining based analysis; type: organism-based; conditions: in vivo, 312 h, dose 5-20 mg/kg, time 13 day
[8] = test system: Mus musculus; assay: Restoration of immune function in C57BL/6J mouse implanted with mouse MC38 cells assessed as increase in serum IL-6 level administered intraperitoneally once daily for 13 days by ELISA; type: functional, organism-based; conditions: dose 5-20 mg/kg, route ip, time 13.0 day
[9] = Toxicity in C57BL/6J mouse implanted with mouse MC38 cells assessed as change in ALT level at 40 to 160 mg/kg, IG qd for 7 days; type: organism-based; conditions: in vivo, po, 168 h, dose 40-160 mg/kg, time 7 day
[10] = Toxicity in C57BL/6J mouse implanted with mouse MC38 cells assessed as change in MCHC count at 40 to 160 mg/kg, IG qd for 7 days; type: organism-based; conditions: in vivo, po, 168 h, dose 40-160 mg/kg, time 7 day

C[C@H](N)C(=O)N1Cc2ccc(-c3cccc(-c4ccc5c(c4)OCCO5)c3Cl)cc2C1.Cl
Kd [1]: 230 nM
inhibition [2]: Active
Tmax [3]: 25.2 min
AUC(0-inf) [4]: 644 ng·h/mL
bioavailability [5]: 21.4%
Activity [6]: Non-toxic
Activity [7]: Non-toxic
Activity [8]: Dose-dependent-effect
Activity [9]: Non-toxic
Activity [10]: Non-toxic
